Where “and” joins values, the source holds several entries; their conditions need not be identical. Identical values can stand only once.
Legend:
A549 cells [1] = assay: Galuminox uptake in LPS-treated or serum/glucose deprived A549 cells with ROS-attenuating drugs; type: cell-based, human; settings: LPS-treated or nutrient deprived A549 cells; Galuminox 20 μM 60 min
Procedure: For evaluation of therapeutic effects of drugs, such as Carvedilol (CAR), Dexrazoxane (DEX), and mitoTempo (MT) on either serum/glucose deprived media- or LPS-induced superoxide production, A549 cells were incubated with either LPS (1 μg/mL) or serum/glucose deprived (starvation) media for 24 h, and thereafter incubated with Carvedilol, Dexrazoxane, and mitoTempo 24 h at 37° C. Next day, media was removed from wells, cells were carefully rinsed with PBS (2×200 μL), fresh media (200 μL) was added, and cells were incubated with Galuminox (20 μM) at 37° C. for 60 min. For controls, untreated cells were incubated with Galuminox (20 μM) under identical conditions. Thereafter, fluorescence images were acquired, and cellular uptake was quantified as described above.

[2] = tested on: ROS activity in acutely injured lungs; assay: Preclinical PET/CT imaging, mouse model of LPS-mediated acute lung injury; type: in vivo; settings: for Standard Uptake Value (SUV) in lungs: n=4, frames 45-60 min
Procedure: All animal procedures were approved by the Washington University Animal Studies Committee. Imaging and biodistribution studies were performed in C57Bl6 mice (average weight, 24 g). Male mice (n=4) were treated either with LPS at a dose of 5 μg/g or vehicle (saline) 24 h prior to imaging/biodistribution studies. For these studies, mice were anesthetized with isoflurane (2.0%) via an induction chamber and maintained with a nose cone. After anesthetization, the mice were secured in a supine position and placed in an acrylic imaging tray. Following intravenous tail-vein administration of ^68Ga-Galuminox (100 μL; 100 μCi; 2% ethanol in saline, 3.7 MBq), dynamic preclinical PET scans were performed over 60 min, using Inveon PET/CT scanner (Siemens Medical Solutions). PET data were stored in list mode, and reconstruction was performed using a 3D-OSEM method with detector efficiency, decay, dead time, attenuation, and scatter corrections applied. For anatomical visualization, PET images were also co-registered with CT images from an Inveon PET/CT scanner. ROIs were drawn over the lung, and standard uptake values (SUV) were calculated as the mean radioactivity per injected dose per animal weight.

[3] = Biodistribution studies (post preclinical imaging); type: in vivo, C57Bl6 mice; settings: for Biodistribution, Bladder / Biodistribution, Blood / Biodistribution, Bone / Biodistribution, Brain / Biodistribution, Colon / Biodistribution, Fat / Biodistribution, Heart / Biodistribution, Intestine / Biodistribution, Kidney / Biodistribution, Liver / Biodistribution, Lung / Biodistribution, Muscle: 60 min, mean, n=4
Description: All animal procedures were approved by the Washington University Animal Studies Committee. Following microPET/CT imaging, mice (n=4) were euthanized by cervical dislocation. Blood samples were obtained by cardiac puncture, organs then harvested rapidly, and all tissue samples analyzed for γ-activity using Beckman Gamma 8000 counter. All samples were decay-corrected to the time the γ-counter was started. Standard samples were counted with the organs for each animal and represent […] of the injected dose. An additional dose was diluted into milliQ water (100 mL) and aliquots (1 mL) were counted with each mouse. Data were quantified as the percentage injected dose (% ID) per gram of tissue (tissue kBq (injected kBq)^−1 (g tissue)^−1×100) in Table 2, shown below.

left transplanted lung = assay: MicroPET/CT imaging in mouse lung transplant model of CLAD; type: in vivo, mice; settings: 4 days post left lung transplant; PET/CT 30 min post injection, 20 min static scan
Procedure: The next experiment was an evaluation of Galuminox in a mouse lung transplant model of CLAD. Allogeneic (FVB) left lung recipients (B16 mice) were treated with immunosuppression agents CD40L and CTLA4Ig to induce tolerance. Despite treatment with immunosuppressant drugs, allogeneic transplants show OB lesions as a function of time, normally defined as early stages of disease progression (early CLAD) and late stages of disease progression (fulminant CLAD).
4 days post left lung transplant from FVB mice (donor) into B16 mice (acceptor), both transplanted mice and un-transplanted control counterparts were imaged using PET/CT 30 minutes post tail-vein administration of ^68Ga-Galuminox using static acquisition scan of 20 min (FIG. 12A). PET images were co-registered with CT for anatomical correlation. Standard Uptake Values (SUVs) were determined by drawing ROI, and counts were normalized to injected dose and weights of animals (FIG. 12B).

A549 cells [4] = assay: Live cell fluorescence imaging, cellular accumulation in LPS-treated A549 cells; type: cell-based, human; settings: LPS 1 μg/mL 24 h
Procedure: Human alveolar basal epithelial (A549) adenocarcinoma cells were grown in Dulbecco's Modified Eagle Medium (DMEM) supplemented with 1-glutamine (2 mM), penicillin/streptomycin (200 IU.) and heat-inactivated fetal calf serum (10%). The cells were grown at 37° C. under a 5% CO2 atmosphere.
Live cell fluorescence imaging studies were performed at Washington University Center for Cellular Imaging (WUCCI). For imaging studies, A549 cells or their mt-Keima transfected counterparts were plated onto borosilicate 8-well chambered coverglass (Labtek) and allowed to grow to approximately 70% confluence at 37° C. under 5% CO2 atmosphere in the culture media (200 μL) and treated with LPS (1 μg/mL) for 24 h. Following LPS treatments, all wells were rinsed with fresh media. […] Images were processed and analyzed using the ImageJ software package (NIH). […] For analysis, ROIs were drawn on cells of both channels, scatter plots were obtained, and Pearson's Correlation Coefficients (PCC) were determined as described previously (K. W. Dunn, M. M. Kamocka, J. H. McDonald. A practical guide to evaluating colocalization in biological microscopy. Am. J. Physiol. Cell Physiol., 300 (2011), pp. C723-C742.).

[5] = LPS vs saline, 1 h post injection

SMILES: COc1ccccc1OCCNCC(O)COc1cccc2[nH]c3ccccc3c12 (stereo not drawn) [CAR, Carvedilol]
- Galuminox probe uptake in the presence of the drug compared to control A549 cells (A549 cells [1]): significantly decreased

SMILES: O=C(CNC(=S)Nc1ccc(CC2CN3CCN4CCN2CC(=O)[O][68Ga]([O]C(=O)C4)[O]C(=O)C3)cc1)Nc1cccc2c(=O)[nH][nH]c(=O)c12 (stereo not drawn) [^68Ga-Galuminox]
- SUV time-activity curves, retention in lungs of LPS-treated mice ([2]; 0-60 min dynamic PET): consistently higher and stable retention
- Standard Uptake Value (SUV) in lungs ([2]; LPS-treated mice (5 μg/g, 24 h)): 12.9±1.85
- mode of excretion (PET pharmacokinetics) ([2]; mouse, in vivo): dominant renal mode of probe excretion
- Standard Uptake Value (SUV) in lungs ([2]; saline (vehicle) only treated mice): 2.62±0.48
- excretion profiles (biodistribution) ([3]; 1 h post injection): both hepatobiliary- and renal-modes of excretion
- Biodistribution, Bladder ([3]; Control (saline)): 162.956 % ID/g
- Biodistribution, Blood ([3]; Control (saline)): 2.82±0.88 % ID/g and 2.822 % ID/g
- Biodistribution, Bone ([3]; Control (saline)): 1.0±0.34 % ID/g and 1.002 % ID/g
- Biodistribution, Brain ([3]; Control (saline)): 0.5693 % ID/g
- Biodistribution, Colon ([3]; Control (saline)): 0.8617 % ID/g
- Biodistribution, Fat ([3]; Control (saline)): 0.6117 % ID/g
- Biodistribution, Heart ([3]; Control (saline)): 2.381 % ID/g
- Biodistribution, Intestine ([3]; Control (saline)): 4.286 % ID/g
- Biodistribution, Kidney ([3]; Control (saline)): 13.0965 % ID/g
- Biodistribution, Liver ([3]; Control (saline)): 6.14±0.66 % ID/g and 6.138 % ID/g
- Biodistribution, Lung ([3]; Control (saline)): 39.7±19.3 % ID/g and 39.7 % ID/g
- Biodistribution, Muscle ([3]; Control (saline)): 1.084 % ID/g
- Biodistribution, Bladder ([3]; LPS treated): 5.893 % ID/g
- Biodistribution, Blood ([3]; LPS treated): 3.96±1.83 % ID/g and 3.96 % ID/g
- Biodistribution, Bone ([3]; LPS treated): 2.14±0.57 % ID/g and 2.138 % ID/g
- Biodistribution, Brain ([3]; LPS treated): 0.2628 % ID/g
- Biodistribution, Colon ([3]; LPS treated): 0.2924 % ID/g
- Biodistribution, Fat ([3]; LPS treated): 0.3021 % ID/g
- Biodistribution, Heart ([3]; LPS treated): 1.073 % ID/g
- Biodistribution, Intestine ([3]; LPS treated): 1.314 % ID/g
- Biodistribution, Kidney ([3]; LPS treated): 3.048 % ID/g
- Biodistribution, Liver ([3]; LPS treated): 10.5±1.68 % ID/g and 10.46 % ID/g
- Biodistribution, Lung ([3]; LPS treated): 147.9±25.8 % ID/g and 147.8875 % ID/g
- Biodistribution, Muscle ([3]; LPS treated): 0.294 % ID/g
- bone retention, LPS vs saline [3, 5]: 2.1 fold
- higher retention in lungs of LPS treated mice vs saline-only (biodistribution) [3, 5]: 4 fold
- higher retention in the blood of LPS treated mice vs saline [3, 5]: 1.4 fold
- liver retention, LPS vs saline [3, 5]: 1.7 fold
- higher specific retention in lungs of LPS treated mice (lung normalized to blood) ([3]; lung 4 fold / blood 1.4 fold): 3 fold and 2.85 fold
- higher uptake in the left transplanted lung compared with untransplanted mice (SUV) (left transplanted lung): 1.5 fold

SMILES: CC1(C)CC(NC(=O)C[P+](c2ccccc2)(c2ccccc2)c2ccccc2)CC(C)(C)N1[O] [Mito-Tempo]
- Galuminox probe uptake in the presence of the drug compared to control A549 cells (A549 cells [1]): significantly decreased

SMILES: Nc1ccc2c(c1)C(c1ccccc1)N(CCCCCC[P+](c1ccccc1)(c1ccccc1)c1ccccc1)c1cc(N)ccc1-2.[I-] (stereo not drawn) [MitoSOX]
- probe fluorescence, LPS stimulated vs untreated A549 control cells (A549 cells [4]): higher fluorescence

SMILES: C[C@@H](CN1CC(=O)NC(=O)C1)N1CC(=O)NC(=O)C1 [DEX, Dexrazoxane]
- Galuminox probe uptake in the presence of the drug compared to control A549 cells (A549 cells [1]): significantly decreased
